Data: patent publication US7429612B2, “Indoline compound and medicinal use thereof” (Kyoto Pharmaceutical Industries, Ltd., priority 2002, dated 2008)
Structures can show the parent of a compound that is named as a salt.

Tests used:
[1] = tested on: hepatic ACAT; assay: Hepatic ACAT inhibitory activity (rabbit liver microsomes, [1-14C]-oleoyl CoA); format: biochemical, Japanese white rabbits; settings: Concentration: 10^-6 M; inhibition of cholesteryl oleate production vs control
Description: A high cholesterol feed [a feed added with cholesterol (1%), Clea Japan, Inc.] was fed to male Japanese white rabbits weighing 2-2.5 kg at 100 g per day and the rabbits were bred for 4 weeks. The rabbits were killed by bleeding under anesthesia and liver was removed. The liver was homogenated, and the homogenate was centrifuged at 4° C. and 10,000 rpm for 15 min. The obtained supernatant was further centrifuged at 4° C. and 41,000 rpm for 60 minutes to give microsomal fractions. The microsomal suspension as an enzyme sample, dimethyl sulfoxide (DMSO, […]) or a test compound dissolved in DMSO (test compound solution 3 μl), and reaction substrate [1-^14C]-oleoyl CoA were added to 0.15 M phosphate buffer to the total amount of 300 μl. After incubation at 37° C. for 20 minutes, a chloroform-methanol mixture was added to stop the reaction. Water was added thereto and mixed, and the chloroform layer was separated. The solvent was evaporated to dryness, and the residue was redissolved in n-hexane. The mixture was subjected to thin layer chromatography using a silica gel plate. The spots of cholesteryl oleate on the silica gel plate were scraped, and quantitatively assayed on lo a liquid scintillation counter.

[2] = tested on: THP-1 cell-derived macrophages; assay: THP-1 cell-derived macrophage foam cell formation suppressing effect (cholesterol ester accumulation inhibitory effect); format: cell-based; settings: Concentration: 10^-6 M, acetyl LDL, 3 days culture; for inhibition at 1 µM: Homo sapiens, THP-1, 72 h, read-out: foam cell formation inhibitory rate (%)
Description: THP-1 (Dainippon Pharmaceutical Co., Ltd.) cells were passage cultured in RPMI-1640 medium supplemented with 10% fetal bovine serum (FBS), and the cells of passages 6-13 after purchase were used. The cells were suspended in FBS-containing RPMI-1640 medium to give a suspension having a concentration of 4×10^5 cells/mL. The cell suspension was inoculated to a 12 well microplate by 1 mL, and treated with phorbol 12-myristate 13-acetate (PMA, 200 nM) as a differentiation inducing agent into macrophage. Then acetyl LDL 400 μg/mL prepared separately from plasma-derived LDL of genetically hyperlipidemia rabbit (KHC rabbit, Japan Laboratory Animals, Inc.) was added. In addition, a test compound dissolved in DMSO and diluted with FBS-containing RPMI-1640 medium or a control solvent was added. After culture in a carbon dioxide incubator for 3 days, the cells were washed with phosphate buffered physiological saline (pH 7.0), and the lipid was extracted with n-hexane/isopropanol (3:2). The cells were dissolved in 1M-NaOH and the protein amount was measured. The free cholesterol and cholesterol ester in a lipid extraction sample was measured by the method of Kunitomo et al. (1983). The cholesterol ester was compared between the control cell and the test compound-treated cells, and the cholesterol ester accumulation inhibitory rate of the test compound was calculated.

## CCCCCCCCN1CCc2c(C)c([N+](=O)[O-])c(C)c(NC(=O)C(C)(C)C)c21 [Example 1, N-(4,6-dimethyl-5-nitro-1-octylindolin-7-yl)-2,2-dimethylpropanamide]
[1]
  Hepatic ACAT inhibitory ratio (%): 97.4%

## CCCCCCCCN1CCc2c(C)c(NS(=O)(=O)NC(C)=O)c(C)c(NC(=O)C(C)(C)C)c21 [Example 3, N-[5-(N-acetylsulfamoylamino)-4,6-dimethyl-1-octylindolin-7-yl]-2,2-dimethylpropanamide]
[1]
  Hepatic ACAT inhibitory ratio (%): 89.3%

## CCCCCCCCN1CCc2c(C)c(NS(=O)(=O)NC(=O)OC)c(C)c(NC(=O)C(C)(C)C)c21 [Example 4, N-[5-(N-methoxycarbonylsulfamoylamino)-4,6-dimethyl-1-octylindolin-7-yl]-2,2-dimethylpropanamide]
[1]
  Hepatic ACAT inhibitory ratio (%): 75.8%

## CCCCCCCCN1CCc2c(C)c(NS(N)(=O)=O)c(C)c(NC(=O)C(C)(C)C)c21.Cl [Example 6, N-(4,6-dimethyl-1-octyl-5-sulfamoylaminoindolin-7-yl)-2,2-dimethylpropanamide hydrochloride]
[1]
  Hepatic ACAT inhibitory ratio (%): 97.4%
[2]
  inhibition at 1 µM: 91.2%

## CCCCCCCCN1CCc2c(C)c(NC(N)=O)c(C)c(NC(=O)C(C)(C)C)c21.Cl [Example 7, N-(4,6-dimethyl-1-octyl-5-ureidoindolin-7-yl)-2,2-dimethylpropanamide hydrochloride]
[1]
  Hepatic ACAT inhibitory ratio (%): 95.7%
[2]
  inhibition at 1 µM: 90.9%

## CCCCCCCCCC(C)(C)C(=O)Nc1c(C)c2c(c(NS(C)(=O)=O)c1C)NCC2 [Example 8, N-(7-methanesulfonylamino-4,6-dimethylindolin-5-yl)-2,2-dimethylundecanamide]
[1]
  Hepatic ACAT inhibitory ratio (%): 96.3%
[2]
  inhibition at 1 µM: 89.2%

## CCCCCCCCCC(C)(C)C(=O)Nc1c(C)c2c(c(NS(C)(=O)=O)c1C)N(C)CC2 [Example 9, N-(7-methanesulfonylamino-1,4,6-trimethylindolin-5-yl)-2,2-dimethylundecanamide]
[2]
  inhibition at 1 µM: 70.9%

## CCCCCCCCN1CCc2c(C)c(CNS(C)(=O)=O)c(C)c(NC(=O)C(C)(C)C)c21.Cl [Example 10, N-(5-methanesulfonylaminomethyl-4,6-dimethyl-1-octylindolin-7-yl)-2,2-dimethylpropanamide hydrochloride]
[1]
  Hepatic ACAT inhibitory ratio (%): 87.3%

## CCCCN1CCc2c(C)c(NS(N)(=O)=O)c(C)c(NC(=O)C(C)(C)C)c21.Cl [Example 19, N-(1-butyl-4,6-dimethyl-5-sulfamoylaminoindolin-7-yl)-2,2-dimethylpropanamide hydrochloride]
[1]
  Hepatic ACAT inhibitory ratio (%): 93.4%
[2]
  inhibition at 1 µM: 73.3%

## Cc1c2c(c(NC(=O)C(C)(C)C)c(C)c1NS(N)(=O)=O)N(CCC(C)C)CC2.Cl [Example 20, N-[1-(3-methylbutyl)-4,6-dimethyl-5-sulfamoylaminoindolin-7-yl]-2,2-dimethylpropanamide hydrochloride]
[1]
  Hepatic ACAT inhibitory ratio (%): 95.7%
[2]
  inhibition at 1 µM: 74.7%

## Cc1c2c(c(NC(=O)C(C)(C)C)c(C)c1NS(N)(=O)=O)N(CC(C)C)CC2.Cl [Example 21, N-[1-(2-methylpropyl)-4,6-dimethyl-5-sulfamoylaminoindolin-7-yl]-2,2-dimethylpropanamide hydrochloride]
[1]
  Hepatic ACAT inhibitory ratio (%): 92.7%
[2]
  inhibition at 1 µM: 77.1%

## CCCCCCCCCC(C)(C)C(=O)Nc1c(C)c2c(c(NS(=O)(=O)C(C)C)c1C)NCC2.Cl [Example 23, N-[4,6-dimethyl-7-(2-propanesulfonylamino)indolin-5-yl]-2,2-dimethylundecanamide hydrochloride]
[1]
  Hepatic ACAT inhibitory ratio (%): 96.2%
[2]
  inhibition at 1 µM: 90.5%

## CCCCCCC(C)(C)C(=O)Nc1c(C)c2c(c(NS(=O)(=O)C(C)C)c1C)NCC2 [Example 24, N-[4,6-dimethyl-7-(2-propanesulfonylamino)indolin-5-yl]-2,2-dimethyloctanamide]
[1]
  Hepatic ACAT inhibitory ratio (%): 95.7%
[2]
  inhibition at 1 µM: 90.5%

## CCCCCCCCCC(C)(C)C(=O)Nc1c(C)c2c(c(NS(=O)(=O)c3ccc(C)cc3)c1C)NCC2 [Example 25, N-[4,6-dimethyl-7-(p-toluene)sulfonylaminoindolin-5-yl]-2,2-dimethylundecanamide]
[1]
  Hepatic ACAT inhibitory ratio (%): 94.3%
[2]
  foam cell formation inhibitory rate (%): 89.4%

## CCCCCCCCCC(C)(C)C(=O)Nc1c(C)c2c(c(NS(N)(=O)=O)c1C)NCC2.Cl [Example 26, N-(4,6-dimethyl-7-sulfamoylaminoindolin-5-yl)-2,2-dimethylundecanamide hydrochloride]
[1]
  Hepatic ACAT inhibitory ratio (%): 95.4%
[2]
  inhibition at 1 µM: 75.3%

## CCCCCCCCCC(C)(C)C(=O)Nc1c(C)c2c(c(NC(N)=O)c1C)NCC2 [Example 27, N-(4,6-dimethyl-7-ureidoindolin-5-yl)-2,2-dimethylundecanamide]
[1]
  Hepatic ACAT inhibitory ratio (%): 78.6%

## CCCCCCCCS(=O)(=O)Nc1c(C)c(NC(=O)C(C)(C)C)c(C)c2c1NCC2 [Example 29, N-[4,6-dimethyl-7-(1-octanesulfonylamino)indolin-5-yl]-2,2-dimethylpropanamide]
[1]
  Hepatic ACAT inhibitory ratio (%): 79.5%

## Cc1c2c(c(NC(=O)C(C)(C)C)c(C)c1NS(N)(=O)=O)N(C1CCCC1)CC2.Cl [Example 43, N-(1-cyclopentyl-4,6-dimethyl-5-sulfamoylaminoindolin-7-yl)-2,2-dimethylpropanamide hydrochloride]
[1]
  Hepatic ACAT inhibitory ratio (%): 90.9%
[2]
  inhibition at 1 µM: 58.7%

## CCOCCN1CCc2c(C)c(NS(N)(=O)=O)c(C)c(NC(=O)C(C)(C)C)c21.Cl [Example 46, N-[1-(2-ethoxyethyl)-4,6-dimethyl-5-sulfamoylaminoindolin-7-yl]-2,2-dimethylpropanamide hydrochloride]
[1]
  Hepatic ACAT inhibitory ratio (%): 89.2%
[2]
  inhibition at 1 µM: 59.1%

## CCCN1c2c(c(C)c(NS(N)(=O)=O)c(C)c2NC(=O)C(C)(C)C)CC1COC.Cl (centres unmarked) [Example 50, N-(2-methoxymethyl-4,6-dimethyl-1-propyl-5-sulfamoylaminoindolin-7-yl)-2,2-dimethylpropanamide hydrochloride]
[1]
  Hepatic ACAT inhibitory ratio (%): 86.2%
[2]
  inhibition at 1 µM: 73.6%

## CCCN1c2c(c(C)c(NS(N)(=O)=O)c(C)c2NC(=O)C(C)(C)C)CC1COCC (centres unmarked) [Example 51, N-(2-ethoxymethyl-4,6-dimethyl-1-propyl-5-sulfamoylaminoindolin-7-yl)-2,2-dimethylpropanamide hydrochloride]
[2]
  inhibition at 1 µM: 86%

## CCOCCN1c2c(c(C)c(NS(N)(=O)=O)c(C)c2NC(=O)C(C)(C)C)CC1C (centres unmarked) [Example 54, N-[1-(2-ethoxyethyl)-2,4,6-trimethyl-5-sulfamoylaminoindolin-7-yl]-2,2-dimethylpropanamide hydrochloride]
[2]
  inhibition at 1 µM: 64.5%

## CCCN1c2c(c(C)c(NS(N)(=O)=O)c(C)c2NC(=O)C(C)(C)C)CC1CSC.Cl (centres unmarked) [Example 57, N-(4,6-dimethyl-2-methylthiomethyl-1-propyl-5-sulfamoylaminoindolin-7-yl)-2,2-dimethylpropanamide hydrochloride]
[1]
  Hepatic ACAT inhibitory ratio (%): 94.2%
[2]
  inhibition at 1 µM: 79.9%

## CCCN1c2c(c(C)c(NS(N)(=O)=O)c(C)c2NC(=O)C(C)(C)C)CC1CSCC.Cl (centres unmarked) [Example 59, N-(2-ethylthiomethyl-4,6-dimethyl-1-propyl-5-sulfamoylaminoindolin-7-yl)-2,2-dimethylpropanamide hydrochloride]
[1]
  Hepatic ACAT inhibitory ratio (%): 98.1%
[2]
  inhibition at 1 µM: 92.1%

## CCSCCN1CCc2c(C)c(NS(N)(=O)=O)c(C)c(NC(=O)C(C)(C)C)c21.Cl [Example 60, N-[1-(2-ethylthioethyl)-4,6-dimethyl-5-sulfamoylaminoindolin-7-yl]-2,2-dimethylpropanamide hydrochloride]
[1]
  Hepatic ACAT inhibitory ratio (%): 97.2%

## CSCCN1CCc2c(C)c(NS(N)(=O)=O)c(C)c(NC(=O)C(C)(C)C)c21.Cl [Example 61, N-[4,6-dimethyl-1-(2-methylthioethyl)-5-sulfamoylaminoindolin-7-yl]-2,2-dimethylpropanamide hydrochloride]
[1]
  Hepatic ACAT inhibitory ratio (%): 95.4%
